Test results reported in ChEMBL document CHEMBL4834403, “Design and Synthesis of Novel Epigenetic Inhibitors Targeting Histone Deacetylases, DNA Methyltransferase 1, and Lysine Methyltransferase G9a with In Vivo Efficacy in Multiple Myeloma” (J Med Chem, 2021).
pIC50: −log10 of the molar value.

Target: T1, Histone-lysine N-methyltransferase EHMT2 (Mus musculus, UniProt Q9Z148)
T1 sequence (Q9Z148 whole entry): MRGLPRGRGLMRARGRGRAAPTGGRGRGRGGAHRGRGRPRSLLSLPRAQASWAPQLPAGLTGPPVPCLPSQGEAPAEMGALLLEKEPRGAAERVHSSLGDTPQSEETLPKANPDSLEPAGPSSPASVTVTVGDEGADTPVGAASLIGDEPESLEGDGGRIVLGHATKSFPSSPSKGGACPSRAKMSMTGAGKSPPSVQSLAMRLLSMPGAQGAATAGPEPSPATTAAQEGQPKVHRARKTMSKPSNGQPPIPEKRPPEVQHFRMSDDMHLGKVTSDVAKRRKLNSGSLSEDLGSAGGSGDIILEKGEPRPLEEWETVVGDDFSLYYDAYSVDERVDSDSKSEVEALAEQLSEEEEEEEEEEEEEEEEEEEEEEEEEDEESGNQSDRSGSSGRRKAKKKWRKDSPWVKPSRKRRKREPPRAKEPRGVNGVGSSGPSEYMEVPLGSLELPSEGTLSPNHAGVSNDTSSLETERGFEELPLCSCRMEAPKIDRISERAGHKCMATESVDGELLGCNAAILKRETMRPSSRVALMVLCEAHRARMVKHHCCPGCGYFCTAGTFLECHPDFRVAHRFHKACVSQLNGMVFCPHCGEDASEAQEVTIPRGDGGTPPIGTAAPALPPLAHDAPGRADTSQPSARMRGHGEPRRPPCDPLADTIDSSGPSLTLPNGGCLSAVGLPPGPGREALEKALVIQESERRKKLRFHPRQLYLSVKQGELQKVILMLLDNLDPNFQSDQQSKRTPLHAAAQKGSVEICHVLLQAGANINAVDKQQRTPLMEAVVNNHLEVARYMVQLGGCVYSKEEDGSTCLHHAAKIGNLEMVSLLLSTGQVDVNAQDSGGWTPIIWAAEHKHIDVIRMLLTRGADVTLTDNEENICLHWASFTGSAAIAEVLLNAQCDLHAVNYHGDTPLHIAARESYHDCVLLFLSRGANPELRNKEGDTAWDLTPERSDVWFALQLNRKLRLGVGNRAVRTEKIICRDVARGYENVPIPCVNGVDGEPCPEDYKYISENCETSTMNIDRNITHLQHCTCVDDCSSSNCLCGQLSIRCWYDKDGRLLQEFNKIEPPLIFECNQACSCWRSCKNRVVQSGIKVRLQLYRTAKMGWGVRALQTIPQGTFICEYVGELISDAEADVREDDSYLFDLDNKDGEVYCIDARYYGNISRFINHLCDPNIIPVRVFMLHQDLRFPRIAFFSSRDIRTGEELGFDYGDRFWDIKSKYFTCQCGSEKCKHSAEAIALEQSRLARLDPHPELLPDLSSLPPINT
Test: Inhibition of mouse thymus 6His-sumo-tagged G9a (969 to 1263 residues) expressed in Escherichia coli BL21 (DE3) using histone H3 as substrate incubated for 30 mins by MALDI-TOF-MS analysis

- pIC50: 5.15
SMILES: COc1ccc2c(NC3CCN(Cc4ccccc4)CC3)nc(NCCNC(=O)CCCCCC(=O)NO)nc2c1
